Test results: patent US12473551B2, “Small RNA-based drug, preparation and use thereof in prophylaxis and/or treatment of cardiomyopathy” (SOUTHWEST MEDICAL UNIVERSITY, priority 2023, dated 2025)
“Also recorded” adds a separate entry of the source.

Legend:
[1] = tested on: AC16 cardiomyocytes treated with AGEs; test: Pharmacodynamics: CCK8 EC50 against AGEs-induced cardiomyocyte injury; format: cell-based, human; conditions: for protective effect over concentration gradient (relative survival of cardiomyocytes): 1, 10, 20, 30, 40, 50 nM + AGEs 200 μg/mL, 24 h; for EC50: 1-50 nM, 24 h + AGEs 200 μg/mL, CCK8, fitting curve, read-out: half-maximal effect concentration (EC50)
Method: The cell viability was detected by CCK8 assay after 24 h of cell treatment. The absorbance was measured at 450 nm using a microplate reader to calculate the half-maximal effect concentration (EC50), respectively. EC50 was calculated according to the following formula:
[formula] where the blank refers to the serum-free DMEM.

[2] = biological target: NACα protein (Homo sapiens, UniProt Q13765); test: Localized surface plasmon resonance (SPR) binding to NACα protein; conditions: DEPC-treated water, 25° C.; for Kd: ratio Koff/Kon
Description: The affinity of DICAR-JP45 and DICAR-JP for binding to NACα protein was compared using localized surface plasmon resonance (SPR) technology (Wuhan Yangene Biological Technology Co., Ltd.).
Among them, the dissociation coefficient Koff is used to characterize the constant of the dissociation velocity of DICAR-JP45 and NACα protein, the binding coefficient Kon is used to characterize the constant of the binding velocity of DICAR-JP45 and NACα protein, and the affinity constant KD is the ratio of Koff/Kon, indicating the equilibrium dissociation constant between DICAR-JP45 and NACα protein.

[3] = tested on: db/db mice; test: Cardiac function of db/db mice after AAV9-DICAR-JP / AAV9-DICAR-JP45 tail vein injection; format: in vivo, mouse; conditions: for E′/a value: db/db mice 1.14, DICAR-JP p<0.05, DICAR-JP45 no statistical significance
Description: In the present disclosure, Shanghai Jikai Gene Medical Technology Co., Ltd. was commissioned to construct AAV9-DICAR-JP and AAV9-DICAR-JP45 viruses based on the sequences shown in SEQ ID NOS: 12 and 10, including CMV bGlobin EGFP-MCS-WPRE hGH polyA as a viral plasmid construction skeleton element sequence, a vector with the number GV412, and NheI and Hind III as cloning sites; the construction of microRNA up involves extending the precursor sequence of microRNA approximately 100 bp each upstream and downstream of the genome, ensuring the splicing efficiency of microRNA.
The mice were divided into db/m+AAV9-GFP (mock control, 5×10^11 vg), db/db+AAV9-GFP (5×10^11 vg), db/db+AAV9-DICAR-JP (5×10^11 vg), db/db+AAV9-DICAR-JP45 (5×10^11 vg), and db/db+dapagliflozin (DAPA, 1.5 mg/kg/d) groups. AAV9 viruses were injected into the tail vein of the mice at the age of 4 months. The mice in the db/db group were administered by gastric gavage with DAPA at the age of 5 months, and the mice in the db/m group were controls without gastric gavage of DAPA. The changes of cardiac function were evaluated by small animal echocardiography at the age of 5, 6 and 7 months, respectively, cardiac remodeling was evaluated by Masson staining, and myocardial hypertrophy was evaluated by wheat germ agglutinin (WGA) staining.

[4] = tested on: AC16 human cardiomyocytes treated with AGEs; test: CCK8 cell viability screening of candidate sequences in AGEs-treated cardiomyocytes; format: cell-based; conditions: for protective effect on cardiomyocytes compared with DICAR-JP / relative cell viability / protective effect at around 48 h: 20 nM, CCK8; for protective effect on cardiomyocytes compared with DICAR-JP: 24 h transfection; for protective effect on cardiomyocytes compared with DICAR-JP / relative cell viability: AGEs 200 μg/mL for 24 h; for protective effect at around 48 h: AGEs 200 μg/mL for 48 h
Method: In this example, CCK8 assay was used to evaluate the protective activity of the candidate sequences against cardiomyocytes treated with advanced glycation end products (AGEs, purchased from Bioss®, Cat #bs-1158P), so as to select a small RNA with a better protective effect on cardiomyocytes. The method included the following steps:
Cell culture: AC16 human cardiomyocytes (purchased from Guangzhou Jennio Biotech Co., Ltd., derived from ATCC) were cultured in DMEM (High Glucose) Complete Medium (supplemented with 10% fetal bovine serum (FBS) and 1% […]) in a 5% CO2, 37° C. incubator.
Grouping: Control, AGEs (200 μg/mL, 24 h/48 h), negative control (NC, 20 nM, 24 h), DICAR-JP4 (20 nM, 24 h), DICAR-JP6 (20 nM, 24 h), DICAR-JP18 (20 nM, 24 h), DICAR-JP23 (20 nM, 24 h), DICAR-JP27 (20 nM, 24 h), DICAR-JP28 (20 nM, 24 h), DICAR-JP29 (20 nM, 24 h), DICAR-JP32 (20 nM, 24 h), DICAR-JP40 (20 nM, 24 h), DICAR-JP45 (20 nM, 24 h), and DICAR-JP (20 nM, 24 h).
Nucleic acid transfection method: Two microliters (μL) each of Lipofectamine® RNAi MAX (Thermo Fisher Scientific RNi MAX, Cat #13778-500) and DICAR-JPN were diluted with Opti-MEM® Medium (50 μL), respectively, and then the two reagents were mixed well and incubated at room temperature for 5 min. The Lipofectamine® RNAi MAX-DICAR-JPN complex was added to the AC16 cell supernatant (50 μL/well, 24 h) on a 24-well plate. Afterward, the complete medium was replaced with serum-free DMEM, and the cell cycle was synchronized for 2 h. AC16 cells were treated with 200 μg/mL AGEs for 24 and 48 h, respectively, and their viability was evaluated by CCK8 assay.
Evaluation of cell viability by CCK8 assay: The cells were washed twice with phosphate-buffered saline (PBS) in the dark, and serum-free DMEM supplemented with CCK8 (CCK8: DMEM=1:9) was added; the well plate was placed back into the cell culture incubator for further incubation for 1 h, and the absorbance was measured at 450 nm using a microplate reader. The cell viability (%) was calculated according to the following formula: Cell viability=[(A450nmExperiment−A450nmBlank)]/[(A450nmControl−A450nmBlank)]×100%, where the blank refers to the serum-free DMEM.

[5] = tested on: ASC; test: Western blot of pyroptosis-related protein ASC in AGEs-treated AC16 cells; format: cell-based, human; conditions: 40 nM, 24 h + AGEs 200 μg/mL, β-actin reference
Method: (§1) The DICAR-JP45 (40 nM) and DICAR-JP sequences were transfected into AC16 cell model for 24 h, respectively. The serum-free medium was replaced for starvation for 2 h, followed by treatment with AGEs (200 μg/mL) for 24 h, respectively. After the cells were treated, the expressions of pyroptosis-related proteins, GSDMD and apoptosis associated speck-like protein containing a CARD (ASC), were detected by Western blot (WB). The internal reference protein was β-actin. The WB was conducted according to the following steps.
(§2) The cells were rinsed twice with PBS, protein lysate (100 μL/well) was added, and the cells were lysed on ice for 30 min. The lysate was collected and centrifuged at 12000 rpm for 30 min at 4° C. After centrifugation, the supernatant protein was collected. The protein sample was mixed with the protein loading buffer at a 4:1 ratio and heated in a metal bath at 95° C. for 10 min, and the sample was stored at 4° C. […] Signals were detected by using enhanced chemiluminescent reagent, and the Western blot bands were quantitatively analyzed by Image J software. […]

[6] = tested on: GSDMD; test: Western blot of pyroptosis-related protein GSDMD in AGEs-treated AC16 cells; format: cell-based, human; conditions: 40 nM, 24 h + AGEs 200 μg/mL, β-actin reference
Method: as §1, §2

[7] = AAV9 tail vein, echocardiography

## CAACCUCCGGGGCCACAAUAGCGAGAUUUGUAAGACUCCAGGGCCUCCCAG (chemistry not given here) [DICAR-JP, reference compound]
[1]
  protective effect over concentration gradient (relative survival of cardiomyocytes): increase within the concentration gradient range
  EC50: 26.2 nM
[2]
  Koff: 0.000866 s⁻¹
  Kon: 22600 M⁻¹ s⁻¹
  Kd: 38.3 nM
[3]; AAV9 5×10^11 vg tail vein
  E′/a value: 1.73
[3]; AAV9 tail vein
  cardiomyocyte hypertrophy (WGA staining): effectively inhibit cardiomyocyte hypertrophy

## CAACCUCCGGGGCCACAAUAGCGAGAUUUGUAAGAUUCCAGGGCCUCCCAG (listed as RNA, chemistry not given here) [DICAR-JP40]
[4]
  protective effect on cardiomyocytes compared with DICAR-JP: significant protective effect
  relative cell viability: significantly higher than that of the model group
  protective effect at around 48 h: disappeared

## CAACCUCCGGGGCCACAAUAGCGAGAUUUGUAAGACUCUAGGGCCUCCCAG (chemistry not given here) [DICAR-JP45]
[4]
  efficacy duration: over 24 h
  protective effect on cardiomyocytes compared with DICAR-JP: significant protective effect
  relative cell viability: higher cardiomyocyte viability; also recorded: close to that of the untreated group
  protective effect at around 48 h: disappeared
[1]
  protective effect over concentration gradient (relative survival of cardiomyocytes): increase within the concentration gradient range
  EC50: 17.9 nM
[5]
  suppression of expression of ASC: more significantly compared with DICAR-JP
[6]
  suppression of expression of GSDMD: more significantly compared with DICAR-JP
[2]
  Koff: 0.000152 s⁻¹
  Kon: 25000 M⁻¹ s⁻¹
  Kd: 6.09 nM
[3]; 3 months after tail vein injection at age 4 months
  improvement in mouse cardiac function: a certain effect on improving cardiac function
[3]; AAV9 5×10^11 vg tail vein, 3 months after injection, db/db mice 57.5%
  ejection fraction (EF) value: 71.07%
[3]; AAV9 5×10^11 vg tail vein
  E′/a value: 1.45
[3]; AAV9 tail vein
  cardiomyocyte hypertrophy (WGA staining): no significant effect on improving myocardial hypertrophy
[3]; [7]
  FS value: improve
  LVVs value: improve
